Tested on: SMNDC1_12PC RNA (5′-UTR SMNDC1 mRNA G quadruplex)
Assay: Steady-state fluorescence spectroscopy titration, PC reporter quenching
Format: binding
Settings: BSA titrated into SMNDC1_12PC RNA, control experiment, Supplemental Figure 1D

With bovine serum albumin [BSA] the “change of steady state fluorescence of PC reporter (non-specific control)” value was “did not change”.
